Source: patent US7572463B2, “Oral dosage forms” (Gruenenthal GmbH, priority 1999, dated 2009)
Structures can show the parent of a compound that is named as a salt.

Experiments:
[1] = In-vitro release profile, European Pharmacopoeia basket apparatus, synthetic gastric then intestinal juices, HPLC; assay type: physicochemical
Description: The release profiles of the oral dosage forms according to the invention were determined as follows:
The dosage forms according to the invention were tested in the European Pharmacopoeia basket apparatus at a temperature of the released medium of 37±0.5° C., and at a rate of 50 rpm for 2 hours in 600 ml synthetic gastric juices without enzymes at pH 1.2. Following this, the dosage form was tested for a further 8 hours in 900 ml synthetic intestinal juices without enzymes at pH 7.2. The quantity of active substance released at a given time was determined in each case by means of HPLC. The values shown are average values based in each case on 3 samples. The invention will be explained below with reference to examples.
(§1) The release profile was determined according to the method indicated above using the basket apparatus and this is reproduced in the following Table 1 and in FIG. 1 (as a percentage of the total dose, calculated as tramadol hydrochloride). By way of deviation from the conditions described above, the coated pellets were tested for 18 hours in synthetic intestinal juices without enzymes at pH 7.2.
as §1, with “2” for “1”, “10” for “18”

[2] = Water solubility of the active-substance salts (saturated solution in deionised water, HPLC); assay type: physicochemical; settings: 25° C., 20 hours stirring
Description: The water solubility of the active-substance salts was determined as follows:
The quantity of the relevant active-substance salts required for this may optionally be determined by means of preliminary experiments.
After the un-dissolved active-substance salt had been allowed to settle, the clear supernatant was removed by pipette and centrifuged at rate of at least 3000 rpm for five minutes.

[3] = salt in the ethyl cellulose coated pellets of Example 2
[4] = salt in the shellac coated pellets of Example 3, tests in synthetic intestinal juices

COc1cccc(C2(O)CCCCC2CN(C)C)c1.O=C(O)Cc1ccccc1Nc1c(Cl)cccc1Cl (stereo not drawn) [[1e-(m-methoxyphenyl)-2e-dimethylaminomethyl-cyclohexane-1(a)-ol]-[2-(2′,6′-dichloranilino)-phenylacetate]]
period over which tramadol is released in a retarded manner from the salt [1, 3]: 10 h
period over which tramadol is released in a retarded manner from the salt [1, 4]: 8 h

COc1cccc(C2(O)CCCCC2CN(C)C)c1.O=C1NS(=O)(=O)c2ccccc21 (stereo not drawn) [tramadolsaccharinate]
water solubility [2]: approx. 20 mg/ml

COc1cccc(C2(O)CCCCC2CN(C)C)c1 (stereo not drawn) [tramadol hydrochloride]
solubility at 20 h ([2]; thermodynamic from solid): > 300 mg/mL
release of the active substance tramadol from the salt (in words) [1, 3]: released very rapidly
release of the active substance tramadol from the salt (in words) [1, 4]: released very rapidly
